In brackets after ≈: the same amount, converted by molar mass. Like-named read-outs stand apart in the source and are kept apart here.
Legend:
[1] = target: T1, SpsB (Staphylococcus aureus signal peptidase) (Staphylococcus aureus, UniProt P0A070); assay: cell-based; type: biochemical; settings: fluorogenic peptide substrate, kinetic read 30 min
T1 construct: This assay uses a suspension of Staphylococcus aureus cells as a source of SpsB instead of recombinant SpsB protein; endogenous in cells; host or cells: S. aureus, USA300 background, overexpressing SpsB (whole-cell suspension from frozen pellets)
Experimental: A kinetic fluorogenic enzyme activity assay was used to assess inhibition of SpsB (Staphylococcus aureus signal peptidase) activity and IC50s were determined. This assay uses a suspension of Staphylococcus aureus cells as a source of SpsB instead of recombinant SpsB protein.
Cell preparation: Luria broth (LB) was inoculated with S. aureus (USA300 background, overexpressing SpsB) and shaken at 37° C. until an OD600 nm of 1.5-2.0 was reached (˜4 hr). The culture was then diluted to an OD600 nm of 1.0 with LB, aliquoted and centrifuged at 10,000×g for 2 mins. The supernatant was removed and the pellet was resuspended in phosphate buffer (1×PBS, 12.5 mg/L MgCl2, 25 mg/L CaCl2, 0.1% Tween-80) to an OD600 nm of 0.5, then centrifuged again at 10,000x g for 2 mins. The supernatant was removed and the pellets were frozen at −20° C.
Test compounds were prepared in DMSO at a concentration of 10 mg/mL. These compound stocks were diluted into DMSO to a concentration of 25 μg/mL and serial 3-fold dilutions were made in DMSO, for a total of 11 compound concentrations. 20 nL of each compound solution was pre-spotted into a white 384-well plate (50 μL/well polypropylene, Nunc) using acoustic fluid transfer (Echo).
Frozen S. aureus pellets were resuspended in assay buffer (1x PBS, 12.5 mg/L MgCl2, 25 mg/L CaCl2, 0.1% Tween-80) to an OD600 nm of 0.05, then mixed 1:1 (v/v) with 20 μM substrate ((Dabcyl)βAla-KPAKAAE(Edans)) in assay buffer, and this solution was added (20 μL/well) to the 384-well plate that had been pre-spotted with compound. Fluorescence intensity was then immediately read kinetically for 30 minutes with 2 minute read intervals to monitor cleavage of the internally quenched peptide substrate (excitation wavelength=340 nm, emission wavelength=490 nm, Molecular Devices Spectramax M5). Reaction rate (slope) was plotted against inhibitor concentration to derive the IC50.

[2] = tested on: Methicillin Resistant Staphylococcus aureus strain USA 300, NRS384; assay: Minimum inhibitory concentration, broth micro-dilution (CLSI), S. aureus; type: cell-based; settings: Staphylococcus aureus, MRSA / NRS 384 / USA300, 22 h, 35° C., 22 hours
Method in brief: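 Colonies grown 20 hours at 35° C were suspended in cation-adjusted Mueller Hinton Broth with 0.002% Tween-80. Cells were then added to 2-fold compound dilutions starting at 4 or 0.5 μg/mL, at OD600 0.0005.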

[3] = tested on: Escherichia coli ATCC 25922; assay: Minimum inhibitory concentration, broth micro-dilution (CLSI), E. coli; type: cell-based; settings: Escherichia coli, ATCC25922, 22 h, 35° C., 22 hours
[4] = tested on: Escherichia coli MC4100 harboring the IMP4213 (E. coli IMP); assay: microbe, parasite or virus in culture; type: cell-based; settings: Escherichia coli, 22 h, read-out: MIC (μg/mL) E. coli IMP, E. coli MC4100 IMP4213, increased outer-membrane permeability; 35° C., 22 hours
Method in brief: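 Ten 2-fold dilutions, from 4 μg/mL or from 0.5 μg/mL depending on protocol, are challenged with bacteria at OD600 0.0005 in Tween-80-supplemented cation-adjusted Mueller Hinton Broth. Plates incubate 22 hours at 35° C per CLSI. The E. coli IMP4213 strain has increased outer-membrane permeability.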

[5] = SpsB IC50, whole-cell S. aureus (USA300 background, overexpressing SpsB) as SpsB source
[6] = MRSA USA 300 NRS384, read-out: MIC (μg/mL) S. aureus
[7] = E. coli ATCC 25922, read-out: MIC (μg/mL) E. coli
[8] = read-out: MIC (μg/mL) S. aureus, MRSA USA 300 NRS384
[9] = read-out: MIC (μg/mL) E. coli, E. coli ATCC 25922

T1 sequence (P0A070 whole entry): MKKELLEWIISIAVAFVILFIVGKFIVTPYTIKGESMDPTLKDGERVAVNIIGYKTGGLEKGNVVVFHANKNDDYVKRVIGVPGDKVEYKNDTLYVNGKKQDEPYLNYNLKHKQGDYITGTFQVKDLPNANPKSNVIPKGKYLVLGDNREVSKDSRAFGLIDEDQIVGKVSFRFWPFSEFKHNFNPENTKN

SMILES	IC50 [1, 5]	MIC [2, 6]	MIC [3, 7]	MIC [4]	MIC [2, 8]	MIC [3, 9]	IC50 ([1]; read-out: SpsB IC50, whole-cell S. aureus (USA300 background, overexpressing SpsB) as SpsB source)
CCCCCCCCCC(=O)N[C@@H](CCN)C(=O)N(C)[C@@H]1C(=O)N[C@@H](C)C(=O)N[C@H](C(=O)NCC#N)Cc2ccc(OCCN)c(c2)-c2cc1ccc2OCCN [Compound 105]	0.82 nM	0.13 µg/mL (≈ 0.164 µM)	8 µg/mL (≈ 10.1 µM)	0.031 µg/mL (≈ 0.0391 µM)			
CCCCCCCCC(=O)N[C@@H](CCN)C(=O)N(C)[C@@H]1C(=O)N[C@@H](C)C(=O)N[C@H](C(=O)NCC#N)Cc2ccc(OCCN)c(c2)-c2cc1ccc2OCCN [Compound 106]	1.7 nM	0.38 µg/mL (≈ 0.488 µM)	24 µg/mL (≈ 30.8 µM)	0.13 µg/mL (≈ 0.167 µM)			
CCCCCCCC(=O)N[C@@H](CCN)C(=O)N(C)[C@@H]1C(=O)N[C@@H](C)C(=O)N[C@H](C(=O)NCC#N)Cc2ccc(OCCN)c(c2)-c2cc1ccc2OCCN [Compound 107]	4 nM	1 µg/mL (≈ 1.31 µM)	32 µg/mL (≈ 41.9 µM)	0.38 µg/mL (≈ 0.497 µM)			
C[C@@H]1NC(=O)[C@@H](N(C)C(=O)[C@H](CCCCN)NC(=O)c2ccc(-c3ccc(C(C)(C)C)cc3)cc2)c2ccc(OCCN)c(c2)-c2cc(ccc2OCCN)C[C@@H](C(=O)NCC#N)NC1=O [Compound 108]	1.2 nM			0.047 µg/mL (≈ 0.0521 µM)	0.063 µg/mL (≈ 0.0698 µM)	0.5 µg/mL (≈ 0.554 µM)	
COc1ccc(-c2ccc(C(=O)N[C@@H](CCCCN)C(=O)N(C)[C@@H]3C(=O)N[C@@H](C)C(=O)N[C@H](C(=O)NCC#N)Cc4ccc(OCCN)c(c4)-c4cc3ccc4OCCN)cc2)cc1OC [Compound 109]	7.5 nM	2 µg/mL (≈ 2.21 µM)	> 64 µg/mL	1 µg/mL (≈ 1.1 µM)			
C[C@@H]1NC(=O)[C@@H](N(C)C(=O)[C@H](CCCCN)NC(=O)c2ccc(/C=C/c3ccccc3)cc2)c2ccc(OCCN)c(c2)-c2cc(ccc2OCCN)C[C@@H](C(=O)NCC#N)NC1=O [Compound 110]	0.96 nM			0.063 µg/mL (≈ 0.0722 µM)	0.19 µg/mL (≈ 0.218 µM)	8 µg/mL (≈ 9.17 µM)	
C[C@@H]1NC(=O)[C@@H](N(C)C(=O)[C@H](CCCCN)NC(=O)c2ccc(-c3cc(Cl)cc(Cl)c3)cc2)c2ccc(OCCN)c(c2)-c2cc(ccc2OCCN)C[C@@H](C(=O)NCC#N)NC1=O [Compound 111]	1 nM			0.13 µg/mL (≈ 0.142 µM)	0.13 µg/mL (≈ 0.142 µM)	8 µg/mL (≈ 8.74 µM)	
C[C@@H]1NC(=O)[C@@H](N(C)C(=O)[C@H](CCCCN)NC(=O)c2ccc(-c3ccc(C(F)(F)F)cc3)cc2)c2ccc(OCCN)c(c2)-c2cc(ccc2OCCN)C[C@@H](C(=O)NCC#N)NC1=O [Compound 112]	0.77 nM			0.13 µg/mL (≈ 0.142 µM)	0.13 µg/mL (≈ 0.142 µM)	8 µg/mL (≈ 8.75 µM)	
C[C@@H]1NC(=O)[C@@H](N(C)C(=O)[C@H](CCCCN)NC(=O)c2cccc(-c3ccc(Cl)cc3)c2)c2ccc(OCCN)c(c2)-c2cc(ccc2OCCN)C[C@@H](C(=O)NCC#N)NC1=O [Compound 113]	0.51 nM			0.13 µg/mL (≈ 0.148 µM)	0.19 µg/mL (≈ 0.216 µM)	32 µg/mL (≈ 36.3 µM)	
C[C@@H]1NC(=O)[C@@H](N(C)C(=O)[C@H](CCCCN)NC(=O)c2ccccc2-c2ccc(Cl)cc2)c2ccc(OCCN)c(c2)-c2cc(ccc2OCCN)C[C@@H](C(=O)NCC#N)NC1=O [Compound 114]	6.1 nM			2 µg/mL (≈ 2.27 µM)	2 µg/mL (≈ 2.27 µM)	> 64 µg/mL	
C[C@@H]1NC(=O)[C@@H](N(C)C(=O)[C@H](CCCCN)NC(=O)c2ccc(Oc3ccc(Cl)cc3)cc2)c2ccc(OCCN)c(c2)-c2cc(ccc2OCCN)C[C@@H](C(=O)NCC#N)NC1=O [Compound 116]	1.3 nM			0.063 µg/mL (≈ 0.0703 µM)	0.13 µg/mL (≈ 0.145 µM)	12 µg/mL (≈ 13.4 µM)	
C[C@@H]1NC(=O)[C@@H](N(C)C(=O)[C@H](CCCCN)NC(=O)Cc2ccc(-c3ccc(Cl)cc3)cc2)c2ccc(OCCN)c(c2)-c2cc(ccc2OCCN)C[C@@H](C(=O)NCC#N)NC1=O [Compound 117]	2 nM			0.5 µg/mL (≈ 0.559 µM)	0.13 µg/mL (≈ 0.145 µM)	> 64 µg/mL	
C[C@@H]1NC(=O)[C@@H](N(C)C(=O)[C@H](CCCCN)NC(=O)c2ccc(-c3ccc(-c4ccccc4)cc3)cc2)c2ccc(OCCN)c(c2)-c2cc(ccc2OCCN)C[C@@H](C(=O)NCC#N)NC1=O [Compound 118]	1.4 nM			0.031 µg/mL (≈ 0.0336 µM)	0.063 µg/mL (≈ 0.0683 µM)	0.75 µg/mL (≈ 0.813 µM)	
C[C@@H]1NC(=O)[C@@H](N(C)C(=O)[C@H](CCN)NC(=O)c2ccc(C#Cc3ccccc3)cc2)c2ccc(OCCN)c(c2)-c2cc(ccc2OCCN)C[C@@H](C(=O)NCC#N)NC1=O [Compound 120]	1 nM			0.016 µg/mL (≈ 0.019 µM)	0.094 µg/mL (≈ 0.112 µM)	0.44 µg/mL (≈ 0.523 µM)	
C[C@@H]1NC(=O)[C@@H](N(C)C(=O)[C@H](CCN)NC(=O)c2ccc(CCc3ccccc3)cc2)c2ccc(OCCN)c(c2)-c2cc(ccc2OCCN)C[C@@H](C(=O)NCC#N)NC1=O [Compound 121]	1.2 nM			0.023 µg/mL (≈ 0.0272 µM)	0.13 µg/mL (≈ 0.154 µM)	2 µg/mL (≈ 2.36 µM)	
C[C@@H]1NC(=O)[C@@H](N(C)C(=O)[C@H](CCN)NC(=O)c2ccc(-c3ccc(-c4ccccc4)cc3)cc2)c2ccc(OCCN)c(c2)-c2cc(ccc2OCCN)C[C@@H](C(=O)NCC#N)NC1=O [Compound 122]	1.6 nM			0.031 µg/mL (≈ 0.0347 µM)	0.063 µg/mL (≈ 0.0705 µM)	0.25 µg/mL (≈ 0.28 µM)	
CCCCC1CCC(C(=O)N[C@@H](CCN)C(=O)N(C)[C@@H]2C(=O)N[C@@H](C)C(=O)N[C@H](C(=O)NCC#N)Cc3ccc(OCCN)c(c3)-c3cc2ccc3OCCN)CC1 (some centres unmarked) [Compound 123]		0.19 µg/mL (≈ 0.236 µM)	0.5 µg/mL (≈ 0.622 µM)	0.0078 µg/mL (≈ 0.0097 µM)			1.2 nM
CCCCc1ccc(C#CC(=O)N[C@@H](CCN)C(=O)N(C)[C@@H]2C(=O)N[C@@H](C)C(=O)N[C@H](C(=O)NCC#N)Cc3ccc(OCCN)c(c3)-c3cc2ccc3OCCN)cc1 [Compound 124]	1.6 nM	0.13 µg/mL (≈ 0.158 µM)	2 µg/mL (≈ 2.43 µM)	0.031 µg/mL (≈ 0.0377 µM)			
CCCCc1ccc(C(=O)N[C@@H](CCCN)C(=O)N(C)[C@@H]2C(=O)N[C@@H](C)C(=O)N[C@H](C(=O)NCC#N)Cc3ccc(OCCN)c(c3)-c3cc2ccc3OCCN)cc1 [Compound 127]	5.9 nM	0.5 µg/mL (≈ 0.616 µM)	4 µg/mL (≈ 4.93 µM)	0.063 µg/mL (≈ 0.0776 µM)			
CCCCCCCCCCNCCC(=O)N[C@@H](CCN)C(=O)N(C)[C@@H]1C(=O)N[C@@H](C)C(=O)N[C@H](C(=O)NCC#N)Cc2ccc(OCCN)c(c2)-c2cc1ccc2OCCN [Compound 129]	0.67 nM	0.023 µg/mL (≈ 0.0271 µM)	4 µg/mL (≈ 4.71 µM)	0.094 µg/mL (≈ 0.111 µM)			

— patent publication US20180327367A1, “MACROCYCLIC BROAD SPECTRUM ANTIBIOTICS” (priority 2015, published 2018)
